Reference: US11408885B2, “Compositions and multiplex assays for characterizing active proteases and their inhibitors” (Massachusetts Institute of Technology, priority 2017, dated 2022)

Legend:
[1] = tested on: panel of MMPs (MMP1, MMP2, MMP3, MMP7, MMP9, MMP12); experiment: Competitive-MAMBI: loss of HxBP-Bt probe labeling with competitive inhibitor; format: binding, human; conditions: recombinant MMPs and menstrual effluent; inhibitor 0.17-7.5 μM, HxBP-Bt 0.5 μM
MMP7 [2] = target: T1, MMP7 (Homo sapiens, UniProt P09237); conditions: literature; cited from earlier work
T1 sequence (P09237 95-267): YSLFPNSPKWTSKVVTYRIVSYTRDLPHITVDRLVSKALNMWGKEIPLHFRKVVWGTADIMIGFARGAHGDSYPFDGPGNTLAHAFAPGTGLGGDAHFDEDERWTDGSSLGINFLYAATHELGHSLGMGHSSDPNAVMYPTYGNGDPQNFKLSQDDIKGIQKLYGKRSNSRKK

MMP9 [3] = target: T2, MMP9 (Homo sapiens, UniProt P14780); conditions: literature; cited from earlier work
Target sequence in this assay (P14780 94-707, species assumed): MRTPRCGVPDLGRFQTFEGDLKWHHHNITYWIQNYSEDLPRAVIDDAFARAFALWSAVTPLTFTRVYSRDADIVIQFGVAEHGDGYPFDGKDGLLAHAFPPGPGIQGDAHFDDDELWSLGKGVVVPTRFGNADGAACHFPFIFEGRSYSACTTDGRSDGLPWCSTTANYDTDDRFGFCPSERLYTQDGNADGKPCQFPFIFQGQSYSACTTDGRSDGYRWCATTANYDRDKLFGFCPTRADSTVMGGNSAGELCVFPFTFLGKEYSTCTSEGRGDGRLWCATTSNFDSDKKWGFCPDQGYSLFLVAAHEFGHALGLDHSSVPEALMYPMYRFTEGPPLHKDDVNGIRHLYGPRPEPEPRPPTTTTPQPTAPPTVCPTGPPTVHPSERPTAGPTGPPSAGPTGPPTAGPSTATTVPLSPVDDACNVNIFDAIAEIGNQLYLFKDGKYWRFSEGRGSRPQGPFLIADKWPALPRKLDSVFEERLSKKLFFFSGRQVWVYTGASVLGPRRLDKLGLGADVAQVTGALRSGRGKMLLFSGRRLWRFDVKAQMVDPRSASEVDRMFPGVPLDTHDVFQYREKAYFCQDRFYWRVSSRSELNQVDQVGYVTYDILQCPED

MMP3 [4] = target: T3, MMP3 (Homo sapiens, UniProt P08254); experiment: Competitive-MAMBI: loss of HxBP-Bt probe labeling with competitive inhibitor; format: binding; parameters: purchased Peprotech; conditions: recombinant and menstrual effluent, inhibitor 0.17-7.5 μM, HxBP-Bt 0.5 μM
Protocol: (§1) The MAMBI platform was utilized for characterization of inhibitors, in which the HxBP-Bt probe binding to active metalloproteinase was assayed in the presence of small molecule metalloproteases inhibitors. The relative inhibitor potencies were quantified by the loss of labeling by activity-based probe of a target protease with the addition of a competitive inhibitor. Selectivity was additionally estimated by monitoring relative potencies across an enzyme superfamily.
(§2) The relative inhibition by 10 commercially available inhibitors was characterized in a mixture of six recombinant MMPs, as well as in menstrual serum effluent.
(§3) Protease labeling was reported as a fraction of MAMBI signal without competitive inhibition.
Target sequence in this assay (P08254 100-477): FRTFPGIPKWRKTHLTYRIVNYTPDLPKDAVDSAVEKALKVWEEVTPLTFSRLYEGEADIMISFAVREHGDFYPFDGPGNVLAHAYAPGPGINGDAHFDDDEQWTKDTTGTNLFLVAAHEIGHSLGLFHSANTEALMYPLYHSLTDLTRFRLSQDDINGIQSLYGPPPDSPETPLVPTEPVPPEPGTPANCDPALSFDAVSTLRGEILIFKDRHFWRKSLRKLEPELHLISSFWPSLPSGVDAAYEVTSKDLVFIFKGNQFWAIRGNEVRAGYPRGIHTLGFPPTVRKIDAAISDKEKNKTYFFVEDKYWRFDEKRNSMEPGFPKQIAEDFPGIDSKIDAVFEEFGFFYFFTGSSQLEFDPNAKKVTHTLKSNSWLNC

MMP2 [5] = target: T4, MMP2 (Homo sapiens, UniProt P08253); experiment: as above; format: binding; parameters: purchased Peprotech; conditions: inhibitor 0.17-7.5 μM, HxBP-Bt 0.5 μM
T4 sequence (P08253 110-660): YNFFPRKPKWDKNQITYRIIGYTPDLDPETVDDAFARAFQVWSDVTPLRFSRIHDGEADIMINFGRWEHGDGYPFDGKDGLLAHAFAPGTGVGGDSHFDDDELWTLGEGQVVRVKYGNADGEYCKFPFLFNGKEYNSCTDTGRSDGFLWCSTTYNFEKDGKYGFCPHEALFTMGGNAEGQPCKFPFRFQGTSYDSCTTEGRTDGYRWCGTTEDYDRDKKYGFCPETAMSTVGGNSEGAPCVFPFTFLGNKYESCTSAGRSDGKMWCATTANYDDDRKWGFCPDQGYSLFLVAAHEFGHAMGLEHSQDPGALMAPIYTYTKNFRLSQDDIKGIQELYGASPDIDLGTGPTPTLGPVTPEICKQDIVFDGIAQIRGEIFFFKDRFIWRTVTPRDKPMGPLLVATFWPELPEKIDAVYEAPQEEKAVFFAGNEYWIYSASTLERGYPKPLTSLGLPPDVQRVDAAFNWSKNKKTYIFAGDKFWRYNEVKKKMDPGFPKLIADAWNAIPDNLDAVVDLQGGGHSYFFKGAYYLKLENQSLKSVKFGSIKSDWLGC

active recombinant MMPs = conditions: single recombinant MMPs, 500 nM HxBP-Bt
Protocol: A single active recombinant MMP (5 nM by mass, 5 μL total vol) was incubated with HxBP-Bt (30 min at 37° C., 500 nM final HxBP-Bt concentration) under reversible binding conditions. Tested MMPs included MMP1, MMP2, MMP3, MMP7, MMP8, MMP9, MMP10, MMP12, and MMP13. Each containing biotin-labeled MMP (MMP reversibly bound to HxBP-Bt) was then incubated with a cocktail of MMP capture beads (60 minutes, RT, 25 μL total vol).
A cocktail of MMP capture beads diluted in Microparticle Diluent 3 (R&D systems; PN 895857) (17.5 μL bead suspension) was added to the HxBP-Bt-labeled sample (7.5 μL) in a 384-well plate (60 minutes, with rotary agitation, room temperature). Samples were washed 3 times with PBS 0.1% TWEEN®-20 (300 μl each wash) using the Magnetic BioTek plate washer (405 Select TS), incubated with Streptavidin-R-Phycoerythrin (10 μg/mL) diluted in diluted wash buffer concentrate (R&D systems; PN 895003) (15 minutes, with rotary agitation, room temperature), and again washed 3 times by plate washer. Samples were immediately characterized using the FLEXMAP 3D system (Luminex).

MMP2 [6] = target: T4, MMP2; conditions: literature; cited from earlier work
MMP1 = target: T5, MMP1 (Homo sapiens, UniProt P03956); experiment: Competitive-MAMBI: loss of HxBP-Bt probe labeling with competitive inhibitor; format: binding; parameters: purchased Peprotech; conditions: recombinant and effluent derived samples, inhibitor 0.17-7.5 μM, HxBP-Bt 0.5 μM
T5 sequence (P03956 100-469): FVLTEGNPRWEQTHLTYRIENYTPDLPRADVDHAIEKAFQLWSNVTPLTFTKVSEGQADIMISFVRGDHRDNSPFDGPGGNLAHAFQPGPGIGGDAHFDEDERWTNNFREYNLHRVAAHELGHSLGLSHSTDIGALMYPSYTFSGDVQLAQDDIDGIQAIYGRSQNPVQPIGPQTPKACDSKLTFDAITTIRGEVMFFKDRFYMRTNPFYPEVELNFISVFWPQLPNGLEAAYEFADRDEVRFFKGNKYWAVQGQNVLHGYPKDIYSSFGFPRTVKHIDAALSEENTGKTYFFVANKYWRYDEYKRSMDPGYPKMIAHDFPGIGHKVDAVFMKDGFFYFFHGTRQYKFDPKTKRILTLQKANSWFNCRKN

MMP7 [7] = target: T1, MMP7; experiment: as above; format: binding; parameters: The recombinant catalytic domains of human MMPs 7 and 9 were purchased from Enzo Life Sciences, and of MMP 12 from Anaspec; purchased Enzo Life Sciences; conditions: recombinant and effluent derived samples, inhibitor 0.17-7.5 μM, HxBP-Bt 0.5 μM
Protocol: as §1, §2, §3

MMP3 [8] = target: T3, MMP3; conditions: literature; cited from earlier work
Target sequence in this assay (P08254 100-477, species assumed): as the sequence (P08254 100-477) above

MMP12 = MMP12 (Homo sapiens, UniProt P39900); conditions: literature; cited from earlier work
MMP9 [9] = target: T2, MMP9; experiment: Competitive-MAMBI: loss of HxBP-Bt probe labeling with competitive inhibitor; format: binding; parameters: The recombinant catalytic domains of human MMPs 7 and 9 were purchased from Enzo Life Sciences, and of MMP 12 from Anaspec; purchased Enzo Life Sciences; conditions: MMP9 (gelatinase); inhibitor 0.17-7.5 μM, HxBP-Bt 0.5 μM
Protocol: as §1, §2, §3
Target sequence in this assay (P14780 107-449 limits assumed): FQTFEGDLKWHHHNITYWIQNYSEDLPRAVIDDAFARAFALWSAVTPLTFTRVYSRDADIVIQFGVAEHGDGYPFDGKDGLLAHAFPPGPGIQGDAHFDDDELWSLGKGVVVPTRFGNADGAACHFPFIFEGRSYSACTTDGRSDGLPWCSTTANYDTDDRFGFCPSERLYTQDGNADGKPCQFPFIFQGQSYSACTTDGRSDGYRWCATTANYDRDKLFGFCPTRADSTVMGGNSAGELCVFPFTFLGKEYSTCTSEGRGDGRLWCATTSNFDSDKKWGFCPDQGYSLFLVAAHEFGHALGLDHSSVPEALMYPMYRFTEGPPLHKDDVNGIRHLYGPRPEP

Chain of MMP12 (P39900 106-470, species assumed): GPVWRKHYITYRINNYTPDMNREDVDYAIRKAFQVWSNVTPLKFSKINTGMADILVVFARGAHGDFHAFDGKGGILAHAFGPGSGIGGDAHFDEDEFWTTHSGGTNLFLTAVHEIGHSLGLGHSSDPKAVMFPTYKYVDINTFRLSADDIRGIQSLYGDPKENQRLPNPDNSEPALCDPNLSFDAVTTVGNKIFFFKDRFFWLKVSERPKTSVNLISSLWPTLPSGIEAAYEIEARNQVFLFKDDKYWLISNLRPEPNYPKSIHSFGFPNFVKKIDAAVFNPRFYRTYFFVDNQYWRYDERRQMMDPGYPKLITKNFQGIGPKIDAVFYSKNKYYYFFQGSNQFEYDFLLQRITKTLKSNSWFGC

CNC(=O)[C@H](Cc1ccccc1)NC(=O)[C@H](CC(C)C)[C@H](CSc1cccs1)C(=O)NO [Batimastat]
inhibitory activity (loss of probe labeling) [1]: inhibitory activity toward every protease tested | IC50 (MMP7 [2]): 6 nM | IC50 (MMP9 [3]): 1 nM | inhibitory activity (loss of probe labeling) (MMP3 [4]): stronger inhibitory activity against MMP3 compared with Marimastat

CC(C)ON([C@@H](C(=O)NO)C(C)C)S(=O)(=O)c1ccc(-c2ccccc2)cc1 [ARP 101]
inhibitory activity (loss of probe labeling) (MMP2 [5]): increased potency | inhibitory activity (loss of probe labeling) (MMP3 [4]): increased potency

O=C(O)CN(CCN(CC(=O)O)CC(=O)O)CC(=O)O [EDTA, Ethylenediaminetetraacetic acid]
effect on HxBP-Bt binding (MAMBI signal) (active recombinant MMPs): completely eliminated HxBP-Bt binding

CNC(=O)[C@@H](NC(=O)[C@H](CC(C)C)[C@H](O)C(=O)NO)C(C)(C)C [Marimastat]
inhibitory activity (loss of probe labeling) [1]: inhibitory activity toward every protease tested

O=C(O)C[C@@H](NC(=O)c1cc(-c2ccc(-c3ccncc3)cc2)cs1)c1ccccc1 [PF 356231]
IC50 (MMP2 [6]): > 100 nM | IC50 (MMP7 [2]): 96000 nM

N#Cc1ccc(-c2ccc(OCCC(=O)NO)cc2)cc1 [MMP Inhib 3 VII, MMP3 Inhibitor VII]
inhibitory activity (loss of probe labeling) (MMP3 [4]): expected inhibition of MMP3

CN1C(=O)N(CC(C(=O)NO)[C@H](CC2CCCC2)C(=O)N2CCCCC2)C(=O)C1(C)C (stereo partly shown) [Ro32-3555, Ro 32-3555 (Trocade)]
Ki (MMP2 [6]): 154 nM | Ki (MMP7 [2]): 42 nM | Ki (MMP9 [3]): 95 nM | inhibitory activity (loss of probe labeling) (MMP1): significant potency | inhibitory activity (loss of probe labeling) (MMP7 [7]): significant potency

COC[C@H](NC(=O)[C@H](NC(=O)[C@@H](CCCc1ccc(-c2ccccc2)c(C)c1)CC(=O)O)C(C)(C)C)c1ccccc1 [UK 370106]
IC50 (MMP3 [8]): 23 nM | IC50 (MMP7 [2]): 5800 nM | IC50 (MMP9 [3]): 30400 nM | IC50 (MMP12): 42 nM | inhibitory activity (loss of probe labeling) (MMP3 [4]): expected inhibition of MMP3

O=P(O)(O)C(NS(=O)(=O)c1ccc(-c2ccc(Cl)cc2)cc1)P(=O)(O)O [MMP inhibitor 2, MMP Inhibitor 2 IV]
IC50 (MMP9 [3]): > 1000 nM | inhibitory activity (loss of probe labeling) (MMP2 [5]): did not prevent the binding of HxBP-Bt | inhibitory activity (loss of probe labeling) (MMP9 [9]): did not prevent the binding of HxBP-Bt

O=S(=O)(CC1CS1)c1ccc(Oc2ccccc2)cc1 (stereo not shown) [SB 3CT, SB-3CT]
inhibitory activity (loss of probe labeling) (MMP9 [9]): did not prevent the binding of HxBP-Bt
